Reference: patent US4166125A, “2-Oxo-phenylbutanoic acid derivatives” (Grelan Pharmaceutical Co., Ltd., priority 1977, dated 1979)

How the values were obtained:
carrageenin edema = experiment: Inhibitory effect on carrageenin edema (oral administration); format: in vivo, rat (Sprague-Dawley strain); settings: for ED40: Rattus norvegicus, po, 3 h
Method: Inhibitory effect on carrageenin edema.
The experiment was carried out according to a method conforming to Van Arman, C. […] One hour after the administration of the test compound, 0.1 ml of 1% carrageenin solution in physiological saline was injected subcutaneously into the plantar sarface of the right hind paws of the rats. One hour after injection of carrageenin, the volume of the injected paws was measured hourly for 4 hours. Inhibition percent to carrageenin edema (%)* was calculated in comparison with the volume of paws of rats of a control group, to which only 0.3% CMC-Na solution was orally administered. [formula]

adjuvant arthritis = experiment: Inhibition to adjuvant arthritis (oral administration); format: in vivo, rat (Sprague-Dawley strain); settings: for Increase in body weight / Weight of the organs: Adrenal glands / Weight of the organs: Spleen / Weight of the organs: Thymus: once a day for 7 days
Method: Inhibition to adjuvant arthritis.
According to a method conforming to Fujihira et al [Oyo Yakuri, 5, 169, (1971)], liquid paraffin suspension of Mycobacterium butiricum (hereinafter abbreviated as adjuvant) was injected subcutaneously to right hind paws of male rats (Spraque-Dawley strain) weighing 150 to 170 g in an amount of 0.3 mg/0.05 ml/rat. 14 Days after adjuvant injection, the rats, paws of which swelled to a similar degree, were selected and they were separated into groups. From the 15th day after adjuvant injection, each test compound suspended in 0.3% CMC-Na solution was orally administered once a day for 7 days to the 7 rats in each group in the dose shown in the following table 2.
The 16th, 19th and 22nd days after adjuvant injection the volume of left hand paws (i.e. paws not treated with the adjuvant) of the rats and their body weight were measured. Inhibition percent to the arthritis (edema) is calculated according to the same equation as that used in Experiment 1, and the value of ED40 is calculated on the basis of the inhibition percent. Then the rats were sacrificed with ether and the weight of their thymus, adrenal glands and spleen was determined.

[1] = system: pain threshold of hind paws (Brewer's yeast); experiment: Analgesic activity, Randall and Selitto method (oral administration); format: in vivo, rat (Sprague-Dawley strain); settings: Rattus norvegicus; oral, Litchfield-Wilcoxon method, from increasing percent of pain threshold
Method: Randall and Selitto method
According to a method conforming to Randall, L. O. and Selitto, J. J. [Archives Internationales de Pharmacodynamie et de Therapie, 111, 409, (1957)], 0.1 ml of 10% Brewer's yeast suspension in physiological saline was injected subcutaneously into the plantar surface of the right hind paws of 5 male rats in each group (Sprague-Dawley strain) weighing 90 to 110 g. 2 Hours after administration of the yeast suspension, each test compound suspended in 0.3% CMC-Na solution was orally administered to the rats in an amount of 1.0 ml per 100 g of body weight of the rat. 30 Minutes, 60 minutes and 120 minutes after administration of the test compounds, threshold values of left and right hind paws of the rats were measured by an electric pressure device made by Daiwa Kinzoku Co., Ltd. (Japan). The change of threshold was obtained by comparing the pain threshold obtained in a group after the yeast injection with that obtained before the yeast injection, in the same group as above. Increasing percent of pain threshold of the test compound was calculated on the basis of the mean changes of threshold of the test group and of that of the control group. Rats of the control group were administered orally only 0.3% CMC-Na solution.
According to the Litchfield-Wilcoxon method [The Journal of Pharmacology and Experimental Therapeutics, 96, 96, (1949)], ED50 value was calculated as follows on the basis of the increasing percent of pain threshold;

[2] = system: writhing syndrome due to acetic acid; experiment: Analgesic activity, stretching method (oral administration); format: in vivo, mouse (ddY-strain)
Method: The experiment was carried out according to a method conforming to Koster R. et al [Federation Proceedings 18, 412, (1960)]. […] 30 Minutes after administration of the test compound, 0.6% acetic acid aqueous solution was injected intraperitoneally to the mice in an amount of 0.1 ml per 10 g of body weight of the mouse, and then frequency of writhing syndrome due to acetic acid was counted for 20 minutes. Inhibition percent to the writhing syndrome was calculated in comparison with frequency of writhing syndrome counted on mice of a control group, to which only 1% gum arabic solution was orally administered.

gastric mucosa [3] = experiment: Effect on gastric mucosa (1) (oral administration); format: in vivo, mouse (ddY-strain); set-up: unit not given here; settings: mice, 4 hours
Method: 4 Hours after the administration, the mouse was sacrificed with ether, and its stomach was removed. The stomach was treated with 5% formalin for 3 minutes, and gastric mucosa was observed under a stereoscopic microscope. When gastric lesion in the mucosa was found, the length of each lesion was measured. Degree of gastric damage (i.e. GD50)* was calculated on the basis of the length of the lesion of each mouse.
Remark *: GD50 : The value corresponding to the relative frequency of 50% on the normal probability paper plotted the length of gastric lesions of each mouse.

gastric mucosa [4] = experiment: Effect on gastric mucosa (2) (oral administration); format: in vivo, rat (Sprague-Dawley strain); settings: rats, 4 hours
Method: 4 Hours after the administration, the rat was sacrificed with ether, and its stomach was removed. The stomach was treated with 5% formalin for 3 minutes, and gastric mucosa was observed under a stereoscopic microscope. When gastric lesion in the mucosa was found, the number of the lesion in the mucosa was counted.

[5] = system: febrile body temperature (Brewer's yeast); experiment: Antipyretic activity (oral administration); format: in vivo, rat (Sprague-Dawley strain); settings: 30 mg/Kg
Method: Antipyretic activity (oral administration)
According to a method conforming to Winter, C. A. et al [The Journal of Pharmacology and Experimental Therapeutics 133, 117, (1961)], 20% Brewer's yeast suspension in physiological saline was injected subcutaneously to 5 male rats in each group (Sprague-Dawley strain) weighing 200 to 250 g in an amount of 1.0 ml per 100 g of body weight of the rat. After fasting for 18 hours, each test compound suspended in 1% gum arabic solution was administered orally to the rats in an amount of 1.0 ml per 100 g of body weight. Then, the rectal temperature of the rats was taken.

[6] = Stability on storage at 50° C. and humidity of 70% for 1 month; format: physicochemical; settings: among the compounds (I)
Method: For example, when the compounds (I) are kept at temperature of 50° C., and humidity of 70% for 1 month, no substantial change with respect to their appearances and values of quantitative analysis was observed, and no decomposition product was detected by thin-layer chromatography. Thus compounds (I) are prepared for administration in the form of pharmaceutical compositions according to conventional methods in the field of the art, and it is possible to prepare a pharmaceutical composition which comprises a therapeutically effective amount of at least one compound of the general formula (I) as an active ingredient, i.e. anti-inflammatory composition, in solid administration form (e.g. tablets, granules, powders, capsules, suppository), and liquid administration form (e.g. suspension, emulsion). In that case, as carrier, vehicle, solvent or dispersant, there may be used any of those which are known in the field of art. There may be exemplified water, starch, lactose, crystalline cellulose, magnesium stearate, hydroxypropyl cellulose, mannitol, carboxymethyl cellulose, glycol, ethanol, corn oil, peanut oil, castor oil, cacao butter, isocacao, polyoxyethylene stearate. […]

[7] = 100 mg/Kg oral, 3 hour after administration
[8] = 100 mg/Kg oral, 4 hour after administration
[9] = 50 mg/Kg oral, 3 hour after administration

SMILES | Inhibition to carrageenin edema (carrageenin edema; [7]) [%] | Inhibition to carrageenin edema (carrageenin edema; [8]) [%] | ED40 (carrageenin edema) [mg/kg] | Inhibition to adjuvant arthritis (adjuvant arthritis; 25 mg/Kg oral, 1st day) [%] | Inhibition to adjuvant arthritis (adjuvant arthritis; 25 mg/Kg oral, 4th day) [%] | Inhibition to adjuvant arthritis (adjuvant arthritis; 25 mg/Kg oral, 7th day) [%] | Increase in body weight (adjuvant arthritis; 25 mg/Kg oral) [g] | Weight of the organs: Adrenal glands (adjuvant arthritis; 25 mg/Kg oral) | Weight of the organs: Spleen (adjuvant arthritis; 25 mg/Kg oral) | Weight of the organs: Thymus (adjuvant arthritis; 25 mg/Kg oral) | Inhibition to adjuvant arthritis (adjuvant arthritis; 100 mg/Kg oral, 1st day) [%] | Inhibition to adjuvant arthritis (adjuvant arthritis; 100 mg/Kg oral, 4th day) [%] | Inhibition to adjuvant arthritis (adjuvant arthritis; 100 mg/Kg oral, 7th day) [%] | Increase in body weight (adjuvant arthritis; 100 mg/Kg oral) [g] | Weight of the organs: Adrenal glands (adjuvant arthritis; 100 mg/Kg oral) | Weight of the organs: Spleen (adjuvant arthritis; 100 mg/Kg oral) | Weight of the organs: Thymus (adjuvant arthritis; 100 mg/Kg oral) | ED50 [1] [mg/kg] | Mean number of gastric lesion (gastric mucosa [4]; 50 mg/Kg oral) | Mean number of gastric lesion (gastric mucosa [4]; 100 mg/Kg oral) | other results
CCCCC1C(=O)N(c2ccccc2)N(c2ccccc2)C1=O [Phenylbutazone] | 54.3 ± 2.0 | 50.7 ± 6.0 | 62 | 32.2 | 28.8 | 38.3 | 30.9 | 13.2 ± 1.9 mg/100g of body weight | 441.7 ± 29.9 mg/100g of body weight | 141.6 ± 12.5 mg/100g of body weight | 34.3 | 37.9 | 51.6 | 31.4 | 12.0 ± 1.0 mg/100g of body weight | 444.0 ± 39.6 mg/100g of body weight | 146.2 ± 14.8 mg/100g of body weight | 250 | 0.2 | 4.2 | Inhibition to carrageenin edema (carrageenin edema; 12.5 mg/Kg oral, 3 hour after administration): 12.0 ± 5.5%; Inhibition to carrageenin edema (carrageenin edema; 12.5 mg/Kg oral, 4 hour after administration): 19.9 ± 3.7%; Inhibition to carrageenin edema (carrageenin edema; 25 mg/Kg oral, 3 hour after administration): 9.6 ± 8.3%; Inhibition to carrageenin edema (carrageenin edema; 25 mg/Kg oral, 4 hour after administration): 14.3 ± 4.7%; Inhibition to writhing syndrome ([2]; 100 mg/Kg oral): 10%; Inhibition to writhing syndrome ([2]; 200 mg/Kg oral): 15%; Inhibition to writhing syndrome ([2]; 400 mg/Kg oral): 61%; Degree of gastric damage (GD50) (gastric mucosa [3]; 100 mg/Kg oral): 5.2; Degree of gastric damage (GD50) (gastric mucosa [3]; 200 mg/Kg oral): 10.0; Degree of gastric damage (GD50) (gastric mucosa [3]; 282 mg/Kg oral): 13.0; Mean number of gastric lesion (gastric mucosa [4]; 200 mg/Kg oral): 9.6
CC(C)Cc1ccc(C(C)C(=O)O)cc1 (centres unmarked) [Ibuprofen] | 42.2 ± 0.3 | 33.7 ± 3.1 | 90 | 25.6 | 15.7 | 32.0 | 26.7 | 13.7 ± 0.9 mg/100g of body weight | 420.5 ± 34.9 mg/100g of body weight | 143.3 ± 8.9 mg/100g of body weight | 28.1 | 37.3 | 53.4 | 16.0 | 15.3 ± 1.7 mg/100g of body weight | 438.0 ± 40.0 mg/100g of body weight | 127.8 ± 20.7 mg/100g of body weight | 130 | – | – | Inhibition to carrageenin edema (carrageenin edema; [9]): 19.2 ± 22.0%; Inhibition to carrageenin edema (carrageenin edema; 50 mg/Kg oral, 4 hour after administration): 23.5 ± 14.2%; Inhibition to carrageenin edema (carrageenin edema; 200 mg/Kg oral, 3 hour after administration): 43.9 ± 1.0%; Inhibition to carrageenin edema (carrageenin edema; 200 mg/Kg oral, 4 hour after administration): 37.1 ± 4.7%
CC(=O)Oc1ccccc1C(=O)O [Aspirin] | – | – | – | – | – | – | – | – | – | – | – | – | – | – | – | – | – | – | 5.4 | 15.0 | Inhibition to writhing syndrome ([2]; 100 mg/Kg oral): 0%; Inhibition to writhing syndrome ([2]; 200 mg/Kg oral): 43%; Inhibition to writhing syndrome ([2]; 400 mg/Kg oral): 70%; Drop of febrile body temperature [5]: 1 °C; Degree of gastric damage (GD50) (gastric mucosa [3]; 100 mg/Kg oral): 2.0; Degree of gastric damage (GD50) (gastric mucosa [3]; 200 mg/Kg oral): 16.1; Degree of gastric damage (GD50) (gastric mucosa [3]; 282 mg/Kg oral): 18.6; Degree of gastric damage (GD50) (gastric mucosa [3]; 400 mg/Kg oral): 31.2; Mean number of gastric lesion (gastric mucosa [4]; 12.5 mg/Kg oral): 1.0; Mean number of gastric lesion (gastric mucosa [4]; 25 mg/Kg oral): 1.0
CC(C(=O)C(=O)O)c1ccc(N2Cc3ccccc3C2=O)cc1 (centres unmarked) [2-Oxo-3-[4-(1-oxo-2-isoindolinyl)phenyl]butanoic acid] | 53.2 | – | – | – | – | – | – | – | – | – | – | – | – | – | – | – | – | – | 0 | 1.0 | Inhibition to carrageenin edema (carrageenin edema; [9]): 22.5%; Mean number of gastric lesion (gastric mucosa [4]; 25 mg/Kg oral): 0; Stability (in words) [6]: more stable
